In the test the target is T1, human active recombinant p38α-6His tagged (Homo sapiens, UniProt Q16539).
T1 construct: 6His
T1 sequence (Q16539 whole entry): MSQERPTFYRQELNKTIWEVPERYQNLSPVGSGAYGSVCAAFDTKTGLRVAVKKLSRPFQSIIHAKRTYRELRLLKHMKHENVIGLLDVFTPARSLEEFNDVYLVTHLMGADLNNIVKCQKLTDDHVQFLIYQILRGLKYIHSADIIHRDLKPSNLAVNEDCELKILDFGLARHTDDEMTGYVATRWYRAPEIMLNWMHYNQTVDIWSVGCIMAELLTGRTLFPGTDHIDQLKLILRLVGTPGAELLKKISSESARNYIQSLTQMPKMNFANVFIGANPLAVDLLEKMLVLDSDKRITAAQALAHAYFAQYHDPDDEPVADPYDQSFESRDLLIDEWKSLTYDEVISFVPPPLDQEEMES
The test can be described thus: p38 Alpha Enzyme Assay (AlphaScreen, biotinylated-ATF2 substrate). It counts as biochemical. The note with it: pre-incubated 4 hours at 37° C., reaction initiated with ATP; 0.5 nM enzyme; read-out: p38 pIC50 (converted). The protocol:
The ability of the compounds of formula (I) to inhibit p38 kinase may be determined using the following biological assay:
Enzyme assays were performed in polypropylene 96 well plates. The following solutions were added to each well; 10 μL of compound dilutions in assay buffer (20 mM HEPES pH 7.4, containing 20 mM magnesium acetate, 0.005% (w/v) Tween-20, 10 mM DTT) containing 1% (v/v) DMSO or assay buffer containing 1% (v/v) DMSO alone, 70 μL of assay buffer containing 36 nM substrate (biotinylated-ATF2) and 10 μL of an appropriate dilution of human active recombinant p38α-6His tagged. Depending on batch of p38, an appropriate dilution was typically a 5 nM solution to give a final enzyme concentration of 0.5 nM. At this stage, background control wells also received 50 μL of AlphaScreen quench buffer (10 mM HEPES pH 7.4 containing 100 mM EDTA, 0.2% (w/v) bovine serum albumin). The plate was covered, pre-incubated for 4 hours at 37° C. and the enzyme reaction initiated by addition of 10 μL 1 mM ATP. After incubation for a further 45 minutes at 37° C., the reaction was stopped by addition of 50 μL quench reagent and 50 μL of the quenched reaction mixture transferred to an opaque, white 96-well plate. Detection reagent, 25 μL of 10 mM HEPES pH 7.4 containing 100 mM EDTA, 0.2% (w/v) bovine serum albumin, 0.3 nM anti phosphoATF2 antibody and 25 μg/mL of ‘AlphaScreen protein A acceptor and donor beads’ (PerkinElmer Inc.), was added to all wells in a darkened room, the plate sealed and left in the dark for at least 5 hours before AlphaScreen readings were taken using a Perkin Elmer EnVision reader. Total, uninhibited activity was determined from assays performed in each assay plate. The mean control in the absence of p38 activity was subtracted from each well. Data were expressed as percent inhibition of total activity using equation 1. Percent Inhibition=100*(1−Test/Control) Eq.1 Where . . . . • Test=p38 kinase activity in the presence of compound • Control=p38 kinase activity in the absence of compound.
pIC50 is defined as the logarithm of the reciprocal of the concentration of compound required for 50% reduction in total p38 kinase activity.
In general terms: Alpha assays give light when donor and acceptor beads are brought close together.
Turning to `Cc1ccc(C(=O)NC2CC2)cc1-c1ccc2c(=O)n(Cc3ccncc3)cc(C(=O)N3CCC(N4CCCC4)CC3)c2c1` [Example 54, N-Cyclopropyl-4-methyl-3-(1-oxo-2-(pyridin-4-ylmethyl)-4-(4-(pyrrolidin-1-yl)piperidine-1-carbonyl)-1,2-dihydroisoquinolin-6-yl)benzamide], the IC50 was 25.1 nM.

For the compound `Cc1ccc(C(=O)NC2CC2)cc1-c1ccc2c(=O)n(Cc3ccncc3)cc(C(=O)N(C)C3CCN(C)CC3)c2c1` [Example 55, 6-(5-(Cyclopropylcarbamoyl)-2-methylphenyl)-N-methyl-N-(1-methylpiperidin-4-yl)-1-oxo-2-(pyridin-4-ylmethyl)-1,2-dihydroisoquinoline-4-carboxamide], the IC50 was 31.6 nM.

As for `Cc1ccc(C(=O)NC2CC2)cc1-c1ccc2c(=O)n(Cc3ccncc3)cc(C(=O)N3CCC(N(C)C)CC3)c2c1` [Example 56, N-Cyclopropyl-3-(4-(4-(dimethylamino)piperidine-1-carbonyl)-1-oxo-2-(pyridin-4-ylmethyl)-1,2-dihydroisoquinolin-6-yl)-4-methylbenzamide], the IC50 is 7.94 nM.

As to `Cc1ccc(C(=O)NC2CC2)cc1-c1ccc2c(=O)n(Cc3ccncc3)cc(C(=O)NC3CCNCC3)c2c1` [Example 57, 6-(5-Cyclopropylcarbamoyl-2-methyl-phenyl)-1-oxo-2-pyridin-4-ylmethyl-1,2-dihydro-isoquinoline-4-carboxylic acid piperidin-4-ylamide], the IC50 was 1.58 nM.

Take `Cc1ccc(C(=O)NC2CC2)cc1-c1ccc2c(=O)n(Cc3ccncc3)cc(C(=O)N3CCC(N)CC3)c2c1` [Example 58, 3-(4-(4-Aminopiperidine-1-carbonyl)-1-oxo-2-(pyridin-4-ylmethyl)-1,2-dihydroisoquinolin-6-yl)-N-cyclopropyl-4-methylbenzamide]: the IC50 was 2 nM.

Take `Cc1ccc(C(=O)NC2CC2)cc1-c1ccc2c(=O)n(CC3CC3)cc(CN3CCCN(C)CC3)c2c1` [Example 59, N-Cyclopropyl-3-[2-cyclopropylmethyl-4-(4-methyl-[1,4]diazepan-1-ylmethyl)-1-oxo-1,2-dihydro-isoquinolin-6-yl]-4-methyl-benzamide]: the IC50 was 0.316 nM.

Consider `Cc1c(F)cc(C(=O)NC2CC2)cc1-c1ccc2c(=O)n(Cc3ccccc3)cc(C(=O)NCCN(C)C)c2c1` [Example 60, 2-Benzyl-6-(5-(cyclopropylcarbamoyl)-3-fluoro-2-methylphenyl)-N-(2-(dimethylamino)ethyl)-1-oxo-1,2-dihydroisoquinoline-4-carboxamide], for which the IC50 is 0.398 nM.

In the case of `Cc1ccc(C(=O)NC2CC2)cc1-c1ccc2c(=O)n(Cc3ccccc3)cc(CN3CCCC3)c2c1` [Example 61, 3-(2-Benzyl-1-oxo-4-(pyrrolidin-1-ylmethyl)-1,2-dihydroisoquinolin-6-yl)-N-cyclopropyl-4-methylbenzamide], the IC50 was 10 nM.

As to `Cc1ccc(C(=O)NC2CC2)cc1-c1ccc2c(=O)n(CC3CC3)cc(CN3CCC(N4CCCCC4)CC3)c2c1` [Example 62, 3-(4-(1,4′-Bipiperidin-1′-ylmethyl)-2-(cyclopropylmethyl)-1-oxo-1,2-dihydroisoquinolin-6-yl)-N-cyclopropyl-4-methylbenzamide], the IC50 is 5.01 nM.

Consider `Cc1ccc(C(=O)NC2CC2)cc1-c1ccc2c(=O)n(CC3CC3)cc(CN3CCN[C@@H](C)C3)c2c1` [Example 63, (S)—N-Cyclopropyl-3-(2-(cyclopropylmethyl)-4-((3-methylpiperazin-1-yl)methyl)-1-oxo-1,2-dihydroisoquinolin-6-yl)-4-methylbenzamide], for which the IC50 was 1 nM.

`CNCCN(C)Cc1cn(CC2CC2)c(=O)c2ccc(-c3cc(C(=O)NC4CC4)ccc3C)cc12` [Example 64, N-Cyclopropyl-3-(2-(cyclopropylmethyl)-4-((methyl(2-(methylamino)ethyl)amino)methyl)-1-oxo-1,2-dihydroisoquinolin-6-yl)-4-methylbenzamide]: the IC50 is 3.16 nM.

Consider `Cc1ccc(C(=O)NC2CC2)cc1-c1ccc2c(=O)n(CC3CC3)cc(CNC3CCN(C)CC3)c2c1` [Example 65, N-Cyclopropyl-3-(2-(cyclopropylmethyl)-4-((1-methylpiperidin-4-ylamino)methyl)-1-oxo-1,2-dihydroisoquinolin-6-yl)-4-methylbenzamide], for which the IC50 is 7.94 nM.

Consider `Cc1ccc(C(=O)NC2CC2)cc1-c1ccc2c(=O)n(CC3CC3)cc(CN3CCC(N)CC3)c2c1` [Example 66, 3-(4-((4-Aminopiperidin-1-yl)methyl)-2-(cyclopropylmethyl)-1-oxo-1,2-dihydroisoquinolin-6-yl)-N-cyclopropyl-4-methylbenzamide], for which the IC50 is 0.158 nM.

In the case of `Cc1ccc(C(=O)NC2CC2)cc1-c1ccc2c(=O)n(CC3CC3)cc(CNCCN(C)C)c2c1` [Example 67, N-Cyclopropyl-3-(2-(cyclopropylmethyl)-4-((2-(dimethylamino)ethylamino)methyl)-1-oxo-1,2-dihydroisoquinolin-6-yl)-4-methylbenzamide], the IC50 was 5.01 nM.

With `Cc1ccc(C(=O)NC2CC2)cc1-c1ccc2c(=O)n(CC3CC3)cc(CN(C)CCN(C)C)c2c1` [Example 68, N-Cyclopropyl-3-(2-(cyclopropylmethyl)-4-(((2-(dimethylamino)ethyl)(methyl)amino)methyl)-1-oxo-1,2-dihydroisoquinolin-6-yl)-4-methylbenzamide], the IC50 is 3.98 nM.

Regarding `Cc1ccc(C(=O)NC2CC2)cc1-c1ccc2c(=O)n(CC3CC3)cc(CN3CCC(N(C)C)CC3)c2c1` [Example 69, N-Cyclopropyl-3-(2-(cyclopropylmethyl)-4-((4-(dimethylamino)piperidin-1-yl)methyl)-1-oxo-1,2-dihydroisoquinolin-6-yl)-4-methylbenzamide], the IC50 was 0.2 nM.

For `Cc1ccc(C(=O)NC2CC2)cc1-c1ccc2c(=O)n(CC3CC3)cc(CN3CCCNCC3)c2c1` [Example 70, N-Cyclopropyl-3-(2-cyclopropylmethyl-4-[1,4]diazepan-1-ylmethyl-1-oxo-1,2-dihydro-isoquinolin-6-yl)-4-methyl-benzamide], the IC50 was 0.158 nM.

For `Cc1ccc(C(=O)NC2CC2)cc1-c1ccc2c(=O)n(CC3CC3)cc(CNCCCN(C)C)c2c1` [Example 71, N-Cyclopropyl-3-(2-(cyclopropylmethyl)-4-((3-(dimethylamino)propylamino)methyl)-1-oxo-1,2-dihydroisoquinolin-6-yl)-4-methylbenzamide], the IC50 is 10 nM.

Take `Cc1ccc(C(=O)NC2CC2)cc1-c1ccc2c(=O)n(CC3CC3)cc(CN3CCCN(CCO)CC3)c2c1` [Example 72, N-Cyclopropyl-3-(2-(cyclopropylmethyl)-4-((4-(2-hydroxyethyl)-1,4-diazepan-1-yl)methyl)-1-oxo-1,2-dihydroisoquinolin-6-yl)-4-methylbenzamide]: the IC50 was 0.398 nM.

With `Cc1ccc(C(=O)NC2CC2)cc1-c1ccc2c(=O)n(CC3CC3)cc(CN3CCCN(C(C)C)CC3)c2c1` [Example 73, N-Cyclopropyl-3-(2-(cyclopropylmethyl)-4-((4-isopropyl-1,4-diazepan-1-yl)methyl)-1-oxo-1,2-dihydroisoquinolin-6-yl)-4-methylbenzamide], the IC50 was 1.26 nM.

Take `Cc1ccc(C(=O)NC2CC2)cc1-c1ccc2c(=O)n(CC3CC3)cc(CN3CCN(C)CC3)c2c1` [Example 74, N-Cyclopropyl-3-(2-(cyclopropylmethyl)-4-((4-methylpiperazin-1-yl)methyl)-1-oxo-1,2-dihydroisoquinolin-6-yl)-4-methylbenzamide]: the IC50 was 0.631 nM.

For `Cc1c(F)cc(C(=O)NC2CC2)cc1-c1ccc2c(=O)n(CC3CC3)cc(CN3CCCN(C)CC3)c2c1` [Example 75, N-Cyclopropyl-3-(2-(cyclopropylmethyl)-4-((4-methyl-1,4-diazepan-1-yl)methyl)-1-oxo-1,2-dihydroisoquinolin-6-yl)-5-fluoro-4-methylbenzamide], the IC50 is 0.0501 nM.

In the case of `Cc1c(F)cc(C(=O)NC2CC2)cc1-c1ccc2c(=O)n(CC3CC3)cc(CN3CCN(C)CC3)c2c1` [Example 76, N-Cyclopropyl-3-(2-(cyclopropylmethyl)-4-((4-methylpiperazin-1-yl)methyl)-1-oxo-1,2-dihydroisoquinolin-6-yl)-5-fluoro-4-methylbenzamide], the IC50 is 0.1 nM.

In the case of `Cc1c(F)cc(C(=O)NC2CC2)cc1-c1ccc2c(=O)n(CC3CC3)cc(CNCCCN(C)C)c2c1` [Example 77, N-Cyclopropyl-3-(2-(cyclopropylmethyl)-4-((3-(dimethylamino)propylamino)methyl)-1-oxo-1,2-dihydroisoquinolin-6-yl)-5-fluoro-4-methylbenzamide], the IC50 was 1.58 nM.
